US12410171B2, “Tropomyosin receptor kinase (TRK) degradation compounds and methods of use” (Cullgen (Shanghai), Inc., priority 2020, dated 2025)
pIC50: −log10 of the molar value. Where two headings read alike, the source gives them in different places.

Experiments:
TPM3-TRKA fusion protein = target: T1, TPM3-TRKA fusion protein (Homo sapiens, UniProt P04629); experiment: TPM3-TRKA fusion protein levels in KM12 cells (Western blot); format: cell-based; conditions: read-out: Degradation (at 10 nM)
T1 construct: The resulted chimeric proteins always retain the kinase domain of TRK proteins; TPM3 (fusion partner, N-terminal part of tropomyosin alpha-3, P06753); endogenous in cells; host or cells: KM12 colon cancer cells; the other entry of the earlier key: TPM3 (P06753, Tropomyosin alpha-3 chain)
T1 sequence (P04629 with tags, fused parts or gaps): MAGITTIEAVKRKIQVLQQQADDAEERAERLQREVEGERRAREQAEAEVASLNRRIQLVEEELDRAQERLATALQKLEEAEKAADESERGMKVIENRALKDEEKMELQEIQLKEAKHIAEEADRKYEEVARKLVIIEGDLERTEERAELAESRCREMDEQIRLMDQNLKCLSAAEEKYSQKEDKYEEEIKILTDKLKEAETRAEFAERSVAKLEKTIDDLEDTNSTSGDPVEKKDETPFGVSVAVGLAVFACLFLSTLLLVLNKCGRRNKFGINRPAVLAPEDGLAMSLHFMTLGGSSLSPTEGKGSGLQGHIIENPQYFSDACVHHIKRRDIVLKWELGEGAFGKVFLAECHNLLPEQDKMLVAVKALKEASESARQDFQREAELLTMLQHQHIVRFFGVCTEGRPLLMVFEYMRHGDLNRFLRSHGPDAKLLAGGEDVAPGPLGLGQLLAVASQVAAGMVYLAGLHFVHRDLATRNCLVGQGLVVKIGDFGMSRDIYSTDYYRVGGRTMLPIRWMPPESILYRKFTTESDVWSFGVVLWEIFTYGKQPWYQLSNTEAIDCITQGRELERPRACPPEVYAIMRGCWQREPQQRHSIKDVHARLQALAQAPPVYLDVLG
In short: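 TPM3-TRKA levels were assessed by Western blot with chemiluminescent detection and band densitometry, after SDS-PAGE of BCA-normalized RIPA lysates. Before lysis, KM12 cells received DMSO, compounds or matched control compounds at concentrations including 0.1, 1, 10 and 100 nM and 0.4–30 nM. Exposures lasted 4 h, 8–16 h or 16 h.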

KM12 cells = experiment: KM12 cell viability (CellTiter-Glo); format: cell-based; conditions: Homo sapiens
In short: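 Three-day exposure of KM12 cells (5000/well, RPMI 1640 with 10% FBS, 37 °C, 5% CO2) to compound dilution series, 3-fold over 8 or 11 points (top 1000 nM in the 8-point format) or 2-fold over 12. CellTiter-Glo readout, with IC50 fitted by nonlinear least-squares regression.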

[1] = 72 h, KM12 cell viability, CellTiter-Glo, three days treatment, read-out: IC50
[2] = 16 h, TPM3-TRKA degradation in KM12 cells at 10 nM compound, category of percentage degradation

percent degradation of TPM3-TRKA protein at 0.01 µM (TPM3-TRKA fusion protein; [2]) | Compound | percent degradation of TPM3-TRKA protein at 0.01 µM (TPM3-TRKA fusion protein; KM12, 16 h) | pIC50 (KM12 cells; [1]) | pIC50 (KM12 cells; KM12, 72 h)
 | O=C1CCC(N2Cc3ccc(C4CN(C5CCN(c6cccc(-c7cnc8ccc(N9CCC[C@@H]9c9cccc(F)c9)nn78)n6)CC5)C4)cc3C2=O)C(=O)N1 (stereo partly drawn) [TR-309, 3-(6-(1-(1-(6-(6-((R)-2-(3-fluorophenyl)pyrrolidin-1-yl)imidazo[1,2-b]pyridazin-3-yl)pyridin-2-yl)piperidin-4-yl)azetidin-3-yl)-1-oxoisoindolin-2-yl)piperidine-2,6-dione] | 50 to 80% | 8.37 | 
 | Cn1c(=O)n(C2CCC(=O)NC2=O)c2ccc(OCCN3CCN(c4ccc(C(=O)Nc5n[nH]c6ccc(Cc7cc(F)cc(F)c7)cc56)c(NC5CCOCC5)c4)CC3)cc21 (stereo not shown) [TR-314, N-(5-(3,5˜Difluorobenzyl)-1H-indazol-3-yl)-4-(4-(2-((1-(2,6-dioxopiperidin-3˜yl)-3-methyl-2-oxo-2,3-dihydro-1H-benzo[d]imidazol-5-yl)oxy)ethyl)piperazin-1-yl)-2-((tetrahydro-2H-pyran-4-yl)amino)benzamide] | 50 to 80% |  | 6.67
> 80% | Cn1c(=O)n(C2CCC(=O)NC2=O)c2cccc(NCCCN3CCN(c4ccc(C(=O)Nc5n[nH]c6ccc(Cc7cc(F)cc(F)c7)cc56)c(NC5CCOCC5)c4)CC3)c21 (stereo not drawn) [TR-315, N—(S-(3,5-difluorobenzyl)-1H-indazol-3-yl)-4-(4-(3-((1-(2,6-dioxopiperidin-3-yl)-3-methyl-2-oxo-2,3-dihydro-1H-benzo[d]imidazol-4-yl)amino)propyl)piperazin-1-yl)-2-((tetrahydro-2H-pyran-4-yl)amino)benzamide] |  | 8.35 | 
> 80% | Cn1c(=O)n(C2CCC(=O)NC2=O)c2ccc(NCCCN3CCN(c4ccc(C(=O)Nc5n[nH]c6ccc(Cc7cc(F)cc(F)c7)cc56)c(NC5CCOCC5)c4)CC3)cc21 (stereo not shown) [TR-316, N-(5-(3,5-difluorobenzyl)-1H-indazol-3-yl)-4-(4-(3-((1-(2,6-dioxopiperidin-3-yl)-3-methyl-2-oxo-2,3-dihydro-1H-benzo[d]imidazol-5-yl)amino)propyl)piperazin-1-yl)-2-((tetrahydro-2H-pyran-4-yl)amino)benzamide] |  | 8.64 | 
> 80% | O=C1CCC(N2Cc3ccc(N4CC(CN5CCN(c6cccc(-c7cnc8ccc(N9CCC[C@@H]9c9cccc(F)c9)nn78)n6)CC5)C4)cc3C2=O)C(=O)N1 (stereo partly drawn) [TR-317, 3-(6-(3-((4-(6-(6-((R)-2-(3-fluorophenyl)pyrrolidin-1-yl)imidazo[1,2-b]pyridazin-3-yl)pyridin-2-yl)piperazin-1-yl)methyl)azetidin-1-yl)-1-oxoisoindolin-2-yl)piperidine-2,6-dione] |  | 8.30 | 
> 80% | O=C1CCC(N2Cc3ccc(N4CC(CN5CCN(c6ccc(C(=O)Nc7n[nH]c8ccc(Cc9cc(F)cc(F)c9)cc78)c(NC7CCOCC7)c6)CC5)C4)cc3C2=O)C(=O)N1 (stereo not shown) [TR-318, N-(5-(3,5-difluorobenzyl)-1H-indazol-3-yl)-4-(4-((1-(2-(2,6-dioxopiperidin-3-yl)-3-oxoisoindolin-5-yl)azetidin-3-yl)methyl)piperazin-1-yl)-2-((tetrahydro-2H-pyran-4-yl)amino)benzamide] |  | 8.62 | 
> 80% | Cn1c(=O)n(C2CCC(=O)NC2=O)c2ccc(C#CCCN3CCN(c4ccc(C(=O)Nc5n[nH]c6ccc(Cc7cc(F)cc(F)c7)cc56)c(NC5CCOCC5)c4)CC3)cc21 (stereo not shown) [TR-319, N-(5-(3,5-difluorobenzyl)-1H-indazol-3-yl)-4-(4-(4-(1-(2,6-dioxopiperidin-3-yl)-3-methyl-2-oxo-2,3-dihydro-1H-benzo[d]imidazol-5-yl)but-3-yn-1-yl)piperazin-1-yl)-2-((tetrahydro-2H-pyran-4-yl)amino)benzamide] |  | 8.24 | 
> 80% | Cn1c(=O)n(C2CCC(=O)NC2=O)c2ccc(CCCCN3CCN(c4ccc(C(=O)Nc5n[nH]c6ccc(Cc7cc(F)cc(F)c7)cc56)c(NC5CCOCC5)c4)CC3)cc21 (stereo not drawn) [TR-320, N—(S-(3,5-difluorobenzyl)-1H-indazol-3-yl)-4-(4-(4-(1-(2,6-dioxopiperidin-3-yl)-3-methyl-2-oxo-2,3-dihydro-1H-benzo[d]imidazol-5-yl)butyl)piperazin-1-yl)-2-((tetrahydro-2H-pyran-4-yl)amino)benzamide] |  | 8.85 | 
> 80% | Cn1c(=O)n(C2CCC(=O)NC2=O)c2ccc(N3CC(CN4CCN(c5ccc(C(=O)Nc6n[nH]c7ccc(Cc8cc(F)cc(F)c8)cc67)c(NC6CCOCC6)c5)CC4)C3)cc21 (stereo not shown) [TR-321, N-(5-(3,5-difluorobenzyl)-1H-indazol-3-yl)-4-(4-((1-(1-(2,6-dioxopiperidin-3-yl)-3-methyl-2-oxo-2,3-dihydro-1H-benzo[d]imidazol-5-yl)azetidin-3-yl)methyl)piperazin-1-yl)-2-((tetrahydro-2H-pyran-4-yl)amino)benzamide] |  | 8.64 | 
 | Cn1c(=O)n(C2CCC(=O)NC2=O)c2cccc(OCCN3CCN(c4ccc(C(=O)Nc5n[nH]c6ccc(Cc7cc(F)cc(F)c7)cc56)c(NC5CCOCC5)c4)CC3)c21 (stereo not shown) [TR-322, N-(5-(3,5˜Difluorobenzyl)-1H-indazol-3-yl)-4-(4-(2-((1-(2,6-dioxopiperidin-3-yl)-3-methyl-2-oxo-2,3-dihydro-1H-benzo[d]imidazol-4-yl)oxy)ethyl)piperazin-1-yl)-2-((tetrahydro-2H-pyran˜4-yl)amino)benzamide] | < 50% |  | 6.77
 | O=C1CCC(N2Cc3cc(C#CC4CCN(c5ccc(C(=O)Nc6n[nH]c7ccc(Cc8cc(F)cc(F)c8)cc67)c(NC6CCOCC6)c5)CC4)ccc3C2=O)C(=O)N1 (stereo not shown) [TR-323, N-(5-(3,5-Difluorobenzyl)-1H-indazol-3-yl)-4-(4-((2-(2,6-dioxopiperidin-3-yl)-1-oxoisoindolin-5-yl)ethynyl)piperidin-1-yl)-2-((tetrahydro-2H-pyran-4-yl)amino)benzamide] | > 80% | 7.51 | 
 | Cn1c(=O)n(C2CCC(=O)NC2=O)c2ccc(NCCN3CCN(c4ccc(C(=O)Nc5n[nH]c6ccc(Cc7cc(F)cc(F)c7)cc56)c(NC5CCOCC5)c4)CC3)cc21 (stereo not shown) [TR-324, N-(5-(3,5-difluorobenzyl)-1H-indazol-3-yl)-4-(4-(2-((1-(2,6-dioxopiperidin-3-yl)-3-methyl-2-oxo-2,3-dihydro-1H-benzo[d]imidazol-5-yl)amino)ethyl)piperazin-1-yl)-2-((tetrahydro-2H-pyran-4-yl)amino)benzamide] | > 80% |  | 8.89
 | Cn1c(=O)n(C2CCC(=O)NC2=O)c2cccc(NCCN3CCN(c4ccc(C(=O)Nc5n[nH]c6ccc(Cc7cc(F)cc(F)c7)cc56)c(NC5CCOCC5)c4)CC3)c21 (stereo not shown) [TR-325, N-(5-(3,5-difluorobenzyl)-1H-indazol-3-yl)-4˜ (4-(2-((1-(2,6-dioxopiperidin-3-yl)-3-methyl-2-oxo-2,3-dihydro-1H-benzo[d]imidazol-4-yl)amino)ethyl)piperazin-1-yl)-2-((tetrahydro-2H-pyran-4-yl)amino)benzamide] | > 80% |  | 7.89
50 to 80% | O=C1CCC(n2nnc3cccc(N4CC(CN5CCN(c6ccc(C(=O)Nc7n[nH]c8ccc(Cc9cc(F)cc(F)c9)cc78)c(NC7CCOCC7)c6)CC5)C4)c3c2=O)C(=O)N1 (stereo not shown) [TR-326, N-(5-(3,5-Difluorobenzyl)-1H-indazol-3-yl)-4-(4-((1˜ (3-(2,6-dioxopiperidin-3-yl)-4-oxo-3,4-dihydrobenzo[d][1,2,3]triazin-5-yl)azetidin-3-yl)methyl)piperazin-1-yl)-2-((tetrahydro-2H-pyran-4-yl)amino)benzamide] |  | 7.85 | 
50 to 80% | O=C1CCC(n2nnc3cccc(N4CC(CCN5CCN(c6ccc(C(=O)Nc7n[nH]c8ccc(Cc9cc(F)cc(F)c9)cc78)c(NC7CCOCC7)c6)CC5)C4)c3c2=O)C(=O)N1 (stereo not shown) [TR-327, N-(5-(3,5-Difluorobenzyl)-1H-indazol-3-yl)-4-(4-(2-(1-(3-(2,6-dioxopiperidin-3-yl)-4-oxo-3,4-dihydrobenzo[d][1,2,3]triazin-5-yl)azetidin-3-yl)ethyl)piperazin-1-yl)-2-((tetrahydro-2/-pyran-4-yl)amino)benzamide] |  | 7.88 | 
> 80% | O=C1CCC(N2C(=O)c3ccc(C4CN(CC5CCN(c6ccc(C(=O)Nc7n[nH]c8ccc(Cc9cc(F)cc(F)c9)cc78)c(NC7CCOCC7)c6)CC5)C4)cc3C2=O)C(=O)N1 (stereo not shown) [TR-328, N-(5-(3,5-Difluorobenzyl)-1H-indazol-3-yl)-4-(4-((3˜ (2-(2,6-dioxopiperidin-3-yl)-1,3-dioxoisoindolin-5-yl)azetidin-1-yl)methyl)piperidin-1-yl)-2-((tetrahydro-2/7-pyran-4-yl)amino)benzamide] |  | 7.44 | 
> 80% | O=C1CCC(N2Cc3cc(C4CN(CC5CCN(c6ccc(C(=O)Nc7n[nH]c8ccc(Cc9cc(F)cc(F)c9)cc78)c(NC7CCOCC7)c6)CC5)C4)ccc3C2=O)C(=O)N1 (stereo not shown) [TR-330, N-(5-(3,5-Difluorobenzyl)-1H-indazol-3-yl)-4-(4-((3-(2-(2,6-dioxopiperidin-3-yl)-1-oxoisoindolin-5-yl)azetidin-1-yl)methyl)piperidin-1-yl)-2-((tetrahydro-2H-pyran-4-yl)amino)benzamide] |  | 7.55 | 
